In brackets after ≈: the same amount, converted by molar mass. Read-outs that look alike come from different tables or passages of the source.
Key:
[1] = system: reovirus-1; details: Colla et al.; cited from earlier work
[2] = in vivo; set-up: species or system mouse; details: mice, 250 mg/kg iv
Procedure: In rhesus monkeys, the pharmocokinetic parameters after an oral dose of […] of CS-87 are as follows:
^a Mice were administered the drug at a dose of 250 mg/kg iv.

[3] = Effect on weight of uninfected BALB/c mice (FIG. 3); assay type: in vivo, mouse; details: compared with each other and control
[4] = system: HIV-1 p24; assay: Inhibition of HIV replication in human PBM cells, p24 RIA (Table 3)
[5] = system: Coxsackie virus B4; details: Colla et al.; cited from earlier work
[6] = system: L1210 cells; details: in vitro; Lin et al.; Lin and Mancini; cited from earlier work
[7] = system: HIV-1
[8] = system: sarcoma 180 cells; details: in vitro; Lin et al.; cited from earlier work
[9] = in vivo; assay type: in vivo, rhesus monkey; details: rhesus monkeys, oral dose of 920 mg
Procedure: In rhesus monkeys, the pharmocokinetic parameters after an oral dose of […] of CS-87 are as follows: […]

[10] = system: HIV-1 and SIV; assay: Effect of delayed treatment on replication of HIV-1 and SIV in human PBM cells (FIG. 7); assay type: cell-based, HIV-1; SIV
Source text: (§1) A comparison of the differences in median effective an tiviral concentrations between human, non-human primate, and murine retroviruses is shown in Table 5. […] A further comparison of the activity of several nucleoside analogues, including CS-87, against HIV-1 and SIV in human PBM cells is shown in FIG. 6. The effect of delayed treatment with AZT, CS-87 or CS-91 on the replication of HIV-1 and SIV in human PBM cells is shown in FIGS. 7a, b, and c.

[11] = system: polio virus-1; details: cited from earlier work
[12] = system: HIV p24 and p41; assay: Inhibition of HIV replication in human PBM cells, western blot analysis (Table 3)
[13] = system: Sindbis virus; details: Colla et al.; cited from earlier work
[14] = system: uninfected cells; details: tested up to 200 μM
[15] = system: HIV-1 (Strain RF-II); assay: Antiviral activity against HIV-1 in HeLa-T4 cells (Table 4); assay type: cell-based
Procedure: Evaluation in Hela-T4 cells infected with HIV-1 (Strain RF-II)
HeLa-T4 cells (described in Cell 47: 333, 1986) are maintained in Dulbecco's Modified Eagle medium containing 10% inactivated fetal calf serum, penicillin (100 U/ml) and streptomycin (100 μg/ml), and the antibiotic G418 (1 mg/ml). The cells are seeded onto a 96-well plate (2×10^4 cells/well per 0.1 ml), and two days later, the supernatant is removed and the virus added. After adsorption for 45 minutes, the inoculum is removed and the cells washed with phosphate-buffered saline (pH 7.2). The compounds at different concentration are then added in maintenance medium (containing 2% serum). […] The cells are fixed with a mixture of 5% glacial acetic acid/95% Ethanol for 15 minutes, and then stained with Giemsa (20% in PSB) for 4 hours. The plates are then washed and dried. The foci are then enumerated with a dissecting stereomicroscope.

[16] = system: measles; details: Colla et al.; cited from earlier work
[17] = system: parainfluenza virus-3; details: Colla et al.; cited from earlier work
[18] = system: HIV-1; assay: microbe, parasite or virus in culture; details: Human immunodeficiency virus 1, PBMC, read-out: PBM (EC50)
[19] = system: Friend (EY-10); assay: Median effective antiviral concentration against Friend virus (Table 5); assay type: cell-based, murine retrovirus; details: unidentified retrovirus, in Mus musculus
Source text: as §1

[20] = system: SIV (SMM); assay: Median effective antiviral concentration against SIV (Table 5); assay type: cell-based, simian immunodeficiency virus
Source text: as §1

[21] = system: liver enzymes SGPT and SGOT; assay type: in vivo, rhesus monkey; details: rhesus monkeys, FIG. 4
[22] = system: HIV; details: in vitro
[23] = system: HIV-1 (Strain HTLV-III); assay: Antiviral activity against HIV-1 in ATH-8 cells (Table 4)
[24] = system: two particular enzymes isolated from L1210 cells; details: Lin et al.; cited from earlier work
[25] = Human immunodeficiency virus 1, PBMC, in Homo sapiens, read-out: RIA p24 % Inhibition

In the case of `[N-]=[N+]=N[C@H]1C[C@H](n2ccc(=O)[nH]c2=O)O[C@@H]1CO` [CS-87, 3'-azido-2',3'-dideoxyuridine], the “activity against reovirus-1” value [1] is given as “inactive”, the “Ratio: % B/S” value ([2]; 5 min) is given as 6.3% and the Serum levels ([2]; 5 min) is given as 125700 ng/mL. For the same compound, the Kp at 5 min ([2]; mouse, in vivo, iv, 250 mg/kg, 5 min, read-out: Ratio: % B/S) was 0.043, the concentration at 5 min ([2]; mouse, in vivo, iv, 250 mg/kg, 5 min, read-out: Serum levels) was 71300 ng/mL and the concentration at 31 min ([2]; mouse, in vivo, iv, 250 mg/kg, 31 min, read-out: Brain levels) was 11100 ng/mL. It also gave a Kp at 31 min ([2]; mouse, in vivo, iv, 250 mg/kg, 31 min, read-out: Ratio: % B/S) of 0.122, a concentration at 31 min ([2]; mouse, in vivo, iv, 250 mg/kg, 31 min, read-out: Serum levels) of 91000 ng/mL and a concentration at 34 min ([2]; mouse, in vivo, iv, 250 mg/kg, 34 min, read-out: Brain levels) of 5670 ng/mL. The Kp at 34 min ([2]; mouse, in vivo, iv, 250 mg/kg, 34 min, read-out: Ratio: % B/S) was 0.102, the concentration at 34 min ([2]; mouse, in vivo, iv, 250 mg/kg, 34 min, read-out: Serum levels) was 55500 ng/mL and the concentration at 71 min ([2]; mouse, in vivo, iv, 250 mg/kg, 71 min, read-out: Brain levels) was 6400 ng/mL. For the same compound, the Kp at 71 min ([2]; mouse, in vivo, iv, 250 mg/kg, 71 min, read-out: Ratio: % B/S) was 0.261, the concentration at 71 min ([2]; mouse, in vivo, iv, 250 mg/kg, 71 min, read-out: Serum levels) was 24500 ng/mL and the concentration at 1.2 h ([2]; mouse, in vivo, iv, 250 mg/kg, 72 min, read-out: Brain levels) was 7330 ng/mL. For the same compound, the Kp at 1.2 h ([2]; mouse, in vivo, iv, 250 mg/kg, 72 min, read-out: Ratio: % B/S) was 0.134, the concentration at 1.2 h ([2]; mouse, in vivo, iv, 250 mg/kg, 72 min, read-out: Serum levels) was 54800 ng/mL and the “effect on weight of uninfected BALB/c mice” value [3] was “no significant difference”. The “RIA p24 (Dupont kit)” value ([4]; 0.1 μM) was 21.86 ng/mL, the “RIA p24 (Dupont kit)” value ([4]; 1 μM) was 11.76 ng/mL and the “RIA p24 (Dupont kit)” value ([4]; 10 μM) was 0.65 ng/mL. The inhibition at 0.1 µM [4, 25] was 9.2%, the inhibition at 1 µM [4, 25] was 51.2% and the inhibition at 10 µM [4, 25] was 97.3%. For the same compound, the “activity against Coxsackie virus B4” value [5] was “inactive”, the “activity against L1210 cells” value [6] was “inactive” and the “activity compared to d2C in PBM cells” value [7] was “less active”. The “activity against sarcoma 180 cells” value [8] was “inactive”, the AUC ([9]; rhesus monkey, in vivo) was 113 µg·h/mL and the CL/F ([9]; rhesus monkey, in vivo, read-out: clearance (converted)) was 29 mL/min/kg. It also gave a k el ([9]; rhesus monkey, in vivo, read-out: elimination rate constant, k (converted)) of 0.000397 s⁻¹, a half-life ([9]; rhesus monkey, in vivo, read-out: elimination t1/2 k (converted)) of 28.8 min and a Vd/F ([9]; rhesus monkey, in vivo, read-out: volume of distribution (Vss)) of 1.2 L/kg. For the same compound, the “absorption rate constant (ka)” value [9] was 1.73 h⁻¹, the “absorption rate t1/2” value [9] was 24 min and the “effect of delayed treatment on replication of HIV-1 and SIV” value [10] was “time of administration is critical to the effectiveness of the treatment”. The “activity against polio virus-1” value [11] was “inactive”, the “Western blot p24 (band intensity)” value ([12]; 0.1 μM) was 3+ and the “Western blot p41 (band intensity)” value ([12]; 0.1 μM) was 2+. The “Western blot p24 (band intensity)” value ([12]; 1 μM) was 2+, the “Western blot p41 (band intensity)” value ([12]; 1 μM) was 1+ and the “Western blot p24 (band intensity)” value ([12]; 10 μM) was 0. The “Western blot p41 (band intensity)” value ([12]; 10 μM) was 0, the “activity against Sindbis virus” value [13] was “inactive” and the “toxicity to the uninfected cells” value [14] was “not toxic”. The “activity compared to d2C in HeLa-T4 cells” value [15] was “less active”, the EC50 ([15]; Human immunodeficiency virus 1, HeLaT4, HIV-1) was 1240 nM and the activity against measles [16] was “inactive”. For the same compound, the “activity against parainfluenza virus-3” value [17] was “inactive”, the EC50 [18] was 180 nM and the EC50 [19] was > 10000 nM. The “effectiveness against SIV (SMM) compared with Friend or mouse ecotropic virus” value ([20]; SIV (SMM) vs Friend (EY-10) or Cas-Br-M) was “much more effective”, the EC50 ([20]; Simian immunodeficiency virus) was 200 nM and the “toxicity by oral (po) vs intravenous administration” value [21] was “less toxic than intravenous administration”. The “activity against HIV, in words” value [22] was “selective anti-HIV-1 activity”, the “activity compared to d2C in ATH-8 cells” value ([23]; ATH-8 cells) was “comparable activity to d2C” and the MIC ([23]; Human immunodeficiency virus 1, 240 h, read-out: ATH-8 (MIC)) was 0.4 µM (≈ 0.101 µg/mL). The “inhibitory activity towards two particular enzymes isolated from L1210 cells” value [24] was “only marginal inhibitory activity”.

Source: patent US4916122A, “3'-Azido-2',3'-dideoxyuridine anti-retroviral composition” (University of Georgia Research Foundation, Inc., priority 1987, dated 1990)
